From patent publication US12601718B2, “Method for pretreating ranitidine hydrochloride sample” (Hunan Institute for Drug Inspection and Testing, priority 2022, dated 2026)

Assays:
[1] = NDMA carcinogenicity / acceptable intake from CPDB toxicological data (TD50 linear extrapolation, rodent carcinogenicity data); format: in vivo; conditions: 0.0959 μg÷300 mg
Description: According to the toxicological data in the FDA according to the Carcinogenic Potency Database (CPDB database), the NDMA acceptable daily intake is set at about 0.096 μg. On Sep. 13, 2019, the FDA released a safety warning that some Ranitidine-based drugs (including the brand-name drug Zantac) contain the impurity of N-nitrosodimethylamine (NDMA). Subsequently, China launched special inspections and testing on NDMA for this variety.

[2] = cited from earlier work
[3] = cited from earlier work; remark: listed apart in the source

| SMILES | limit value of the impurity NDMA in Ranitidine hydrochloride capsules [1] | NDMA acceptable daily intake ([2]; FDA, according to CPDB database) | carcinogen class ([2]; in vivo) | solubility in dichloromethane [3] | solubility in water [3] |
| --- | --- | --- | --- | --- | --- |
| CN(C)N=O [NDMA, N-nitrosodimethylamine] | ≈ 320 ng/g | about 0.096 μg | class-2A carcinogen | almost insoluble | readily soluble |
| CNC(=C[N+](=O)[O-])NCCSCc1ccc(CN(C)C)o1 [Ranitidine] |  |  |  | almost insoluble | readily soluble |
